# Source: ChEMBL document CHEMBL4270540, “Collagen Prolyl 4-Hydroxylase as a Therapeutic Target” (J Med Chem, 2018)
# pIC50: −log10 of the molar value.
# What was measured:
# [1] = Inhibition of collagen prolyl 4-hydroxylase (unknown origin); design: species or system Homo sapiens
# [2] = Inhibition of chicken collagen prolyl 4-hydroxylase; design: species or system Gallus gallus
# [3] = Inhibition of collagen prolyl 4-hydroxylase (unknown origin) using 2-ketoglutarate as co-factor assessed as formation of [14C]succinate by ion-exchnage chromatographic method; design: species or system Homo sapiens
SMILES,pIC50 [3],other results
COc1ccc(S(=O)(=O)NC(=O)c2ccc(C(=O)O)nc2)cc1,,pIC50 [1]: 6.00
O=C(O)c1ncc2ccccc2c1O,,pIC50 [2]: 6.72
O=C(O)c1nnc2ccccc2c1O,,pIC50 [2]: 7.70
C[C@H](NC(=O)C(=O)O)C(=O)O,4.42,
CC(NC(=O)C(=O)O)C(=O)O (racemic),4.04,
"O=C(O)c1ccc(C(=O)O)nc1 [PYRIDINE-2,5-DICARBOXYLIC ACID]",,pIC50 [1]: 5.26

# Continued, in another order:
pIC50 [3],SMILES,other results
3.21,C[C@@H](NC(=O)C(=O)O)C(=O)O,
5.54,O=C(O)CNC(=O)C(=O)O [N-OXALYLGLYCINE],
